Where “and” joins values, the source holds several entries; their conditions need not be identical. Equal values may be shown once. Inconclusive results and toxic doses are left out. Rule as the data show it: active = T/C of 150% or more; inactive = T/C below 125%.
System: L1210 leukemia ip in BDF1 mice, survival T/C
Test: NCI In Vivo Anticancer Drug Screen. Data for tumor model L1210 Leukemia (intraperitoneal) in B6D2F1 (BDF1) mice
Conditions: endpoint: mean survival time, higher = longer survival
How it was run: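 Transplanted-tumor mice were given test agent; controls received vehicle only. Survival readings from the two groups were divided (treated over control).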

[1] = dose: 100.0 mg/kg/injection, schedule: Q01DX009 (ip), vehicle: saline with Tween-80
[2] = dose: 100.0 mg/kg/injection, schedule: Q04DX003 (ip), vehicle: saline with Tween-80
[3] = dose: 200.0 mg/kg/injection, schedule: Q01DX009 (ip), vehicle: saline with Tween-80
[4] = dose: 200.0 mg/kg/injection, schedule: Q04DX003 (ip), vehicle: saline with Tween-80
[5] = dose: 400.0 mg/kg/injection, schedule: Q04DX003 (ip), vehicle: saline with Tween-80
[6] = dose: 100.0 mg/kg/injection, schedule: Q04DX002 (ip), vehicle: Klucel (hydroxypropylcellulose) (HPC)
[7] = dose: 200.0 mg/kg/injection, schedule: Q04DX002 (ip), vehicle: Klucel (hydroxypropylcellulose) (HPC)
[8] = dose: 400.0 mg/kg/injection, schedule: Q04DX002 (ip), vehicle: Klucel (hydroxypropylcellulose) (HPC)
[9] = dose: 100.0 mg/kg/injection, schedule: Q04DX003 (ip), vehicle: Klucel (hydroxypropylcellulose) (HPC)
[10] = dose: 200.0 mg/kg/injection, schedule: Q04DX003 (ip), vehicle: Klucel (hydroxypropylcellulose) (HPC)
[11] = dose: 400.0 mg/kg/injection, schedule: Q04DX003 (ip), vehicle: Klucel (hydroxypropylcellulose) (HPC)

Measured: T/C

CC(=O)Oc1cccc(OC(=O)Nc2cccc(Cl)c2C)c1
inactive: dose: 100.0 mg/kg/injection, schedule: Q01DX001 (ip), vehicle: saline with Tween-80 93 % of control | [1] 104 % of control and 107 % of control | dose: 100.0 mg/kg/injection, schedule: Q04DX002 (ip), vehicle: saline with Tween-80 94 % of control and 104 % of control | [2] 88 % of control | dose: 200.0 mg/kg/injection, schedule: Q01DX001 (ip), vehicle: saline with Tween-80 100 % of control | [3] 96 % of control and 90 % of control | dose: 200.0 mg/kg/injection, schedule: Q04DX002 (ip), vehicle: saline with Tween-80 94 % of control and 101 % of control | [4] 86 % of control | dose: 400.0 mg/kg/injection, schedule: Q01DX001 (ip), vehicle: saline with Tween-80 93 % of control | dose: 400.0 mg/kg/injection, schedule: Q01DX009 (ip), vehicle: saline with Tween-80 93 % of control and 100 % of control | dose: 400.0 mg/kg/injection, schedule: Q04DX002 (ip), vehicle: saline with Tween-80 97 % of control and 104 % of control | [5] 89 % of control

CCO/C=C(/C(=O)OCC)C(=O)C(OCC)OCC
inactive: dose: 100.0 mg/kg/injection, schedule: Q01DX009 (ip), vehicle: saline 101 % of control | dose: 100.0 mg/kg/injection, schedule: Q04DX003 (ip), vehicle: saline 95 % of control | dose: 200.0 mg/kg/injection, schedule: Q01DX009 (ip), vehicle: saline 101 % of control | dose: 200.0 mg/kg/injection, schedule: Q04DX003 (ip), vehicle: saline 97 % of control | dose: 400.0 mg/kg/injection, schedule: Q01DX009 (ip), vehicle: saline 98 % of control | dose: 400.0 mg/kg/injection, schedule: Q04DX003 (ip), vehicle: saline 94 % of control

O=C(Sc1ccc([N+](=O)[O-])cc1)C(=O)Sc1ccc([N+](=O)[O-])cc1
inactive: [1] 87 % of control | [3] 97 % of control

COB1OB(OC)OB(OC)O1
inactive: dose: 500.0 mg/kg/injection, schedule: Q01DX Z (ip), vehicle: other 94 % of control | dose: 750.0 mg/kg/injection, schedule: Q01DX Z (ip), vehicle: other 104 % of control | dose: 1000.0 mg/kg/injection, schedule: Q01DX001 (ip), vehicle: carboxymethylcellulose (CMC) 109 % of control | dose: 1000.0 mg/kg/injection, schedule: Q01DX Z (ip), vehicle: other 107 % of control | dose: 1500.0 mg/kg/injection, schedule: Q01DX Z (ip), vehicle: other 118 % of control | dose: 2000.0 mg/kg/injection, schedule: Q01DX001 (ip), vehicle: carboxymethylcellulose (CMC) 113 % of control | dose: 3000.0 mg/kg/injection, schedule: Q01DX001 (ip), vehicle: carboxymethylcellulose (CMC) 113 % of control

COc1c(C)c(C)c(OC(C)=O)c(C)c1Br
inactive: [2] 96 % of control | [4] 89 % of control | [5] 91 % of control

NC(N)=NN(CCN(N=O)N=C(N)N)N=O
inactive: [6] 96 % of control | [7] 104 % of control | [8] 86 % of control

CNC(=O)Oc1cccc(NC(=O)OCC(C)(C)C)c1
inactive: [2] 96 % of control | [4] 102 % of control | [5] 97 % of control

COc1ccc(C=Nc2cccc3ccccc23)cc1
inactive: [9] 98 % of control | [10] 96 % of control | [11] 103 % of control

CCOC(=O)c1ccc(N=[N+]([O-])c2ccc(C(=O)OCC)cc2)cc1
inactive: [6] 96 % of control | [7] 96 % of control | [8] 100 % of control

O=C(Nc1cccc(Cl)c1)Oc1cccc2c1CCC2
inactive: dose: 100.0 mg/kg/injection, schedule: Q04DX002 (sc), vehicle: olive oil, sesame oil, peanut oil 97 % of control | dose: 200.0 mg/kg/injection, schedule: Q04DX002 (sc), vehicle: olive oil, sesame oil, peanut oil 94 % of control | dose: 400.0 mg/kg/injection, schedule: Q04DX002 (sc), vehicle: olive oil, sesame oil, peanut oil 102 % of control

O=C(NCc1ccc(S(=O)(=O)F)cc1)Oc1ccc([N+](=O)[O-])cc1
inactive: dose: 25.0 mg/kg/injection, schedule: Q01DX009 (ip), vehicle: other 100 % of control | dose: 50.0 mg/kg/injection, schedule: Q01DX009 (ip), vehicle: other 88 % of control | dose: 100.0 mg/kg/injection, schedule: Q01DX009 (ip), vehicle: other 98 % of control and 87 % of control

Nn1c2ccccc2c2ccccc21
inactive: dose: 50.0 mg/kg/injection, schedule: Q01DX009 (ip), vehicle: Klucel (hydroxypropylcellulose) (HPC) 103 % of control | dose: 75.0 mg/kg/injection, schedule: Q01DX001 (ip), vehicle: carboxymethylcellulose (CMC) 101 % of control | dose: 100.0 mg/kg/injection, schedule: Q01DX009 (ip), vehicle: Klucel (hydroxypropylcellulose) (HPC) 103 % of control | dose: 150.0 mg/kg/injection, schedule: Q01DX001 (ip), vehicle: carboxymethylcellulose (CMC) 104 % of control | dose: 200.0 mg/kg/injection, schedule: Q01DX009 (ip), vehicle: Klucel (hydroxypropylcellulose) (HPC) 92 % of control | dose: 300.0 mg/kg/injection, schedule: Q01DX001 (ip), vehicle: carboxymethylcellulose (CMC) 96 % of control

CC(OC(=O)CBr)C(C)OC(=O)CBr (stereo not drawn)
inactive: dose: 50.0 mg/kg/injection, schedule: Q01DX001 (sc), vehicle: carboxymethylcellulose (CMC) 98 % of control | dose: 100.0 mg/kg/injection, schedule: Q01DX001 (sc), vehicle: carboxymethylcellulose (CMC) 98 % of control | dose: 200.0 mg/kg/injection, schedule: Q01DX001 (sc), vehicle: carboxymethylcellulose (CMC) 95 % of control | dose: 400.0 mg/kg/injection, schedule: Q01DX001 (sc), vehicle: carboxymethylcellulose (CMC) 98 % of control

COc1ccc(OC)c(/C=C/c2ccnc3ccccc23)c1
inactive: dose: 50.0 mg/kg/injection, schedule: Q01DX001 (ip), vehicle: carboxymethylcellulose (CMC) 93 % of control | dose: 100.0 mg/kg/injection, schedule: Q01DX001 (ip), vehicle: carboxymethylcellulose (CMC) 96 % of control | dose: 200.0 mg/kg/injection, schedule: Q01DX001 (ip), vehicle: carboxymethylcellulose (CMC) 91 % of control | dose: 400.0 mg/kg/injection, schedule: Q01DX001 (ip), vehicle: carboxymethylcellulose (CMC) 87 % of control

N#CCC(=O)O
inactive: dose: 18.75 mg/kg/injection, schedule: Q01DX009 (ip), vehicle: saline 98 % of control | dose: 37.5 mg/kg/injection, schedule: Q01DX009 (ip), vehicle: saline 95 % of control | dose: 75.0 mg/kg/injection, schedule: Q01DX009 (ip), vehicle: saline 90 % of control

Cc1cc(=O)n(-c2ccccc2)n1C.[Cl-].[Cl-].[Cl-].[Cl-].[Pt+2]
inactive: [2] 97 % of control | [4] 103 % of control | [5] 105 % of control

COC1OC(COS(=O)(=O)c2ccc(C)cc2)C(OC(=O)c2ccccc2)C(OC(=O)c2ccccc2)C1OS(=O)(=O)c1ccc(C)cc1 (stereo not drawn)
inactive: dose: 25.0 mg/kg/injection, schedule: Q04DX002 (ip), vehicle: Klucel (hydroxypropylcellulose) (HPC) 88 % of control | dose: 50.0 mg/kg/injection, schedule: Q04DX002 (ip), vehicle: Klucel (hydroxypropylcellulose) (HPC) 95 % of control | [6] 88 % of control | [7] 109 % of control and 88 % of control | [8] 109 % of control

CC(C)CCC(O)c1c[nH]c(=O)[nH]c1=O (stereo not drawn)
inactive: [9] 105 % of control | [10] 105 % of control | [11] 94 % of control

CCOc1ccc(OCC(=O)O)cc1
inactive: [9] 93 % of control | [10] 89 % of control | [11] 89 % of control

Nc1ccc2sc3ccccc3c2c1
inactive: dose: 50.0 mg/kg/injection, schedule: Q01DX009 (ip), vehicle: saline with Tween-80 106 % of control | [1] 105 % of control | [2] 95 % of control | [4] 104 % of control

— PubChem BioAssay AID248 (DTP/NCI, 2004)
